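The compound was tested at five concentrations on cells cultured in 96-well plates, with a 48-hour exposure period. GI50 = concentration required for 50% inhibition of growth.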 Calls of active or inactive are those of the source. No stated cut-off is given here; in the data, active = GI50 up to about 1.1 µM and inactive = higher.

Some test systems named below: OVCAR-8; HOP-62; MOLT-4; SK-MEL-2; COLO 205; IGROV-1; SW-620; SF-539; A549; OVCAR-3; UACC-62; KM12; A498.
Test in all cases: NCI-60 cell line screen, 48 h

On to `O=[N+]([O-])/C=C/c1ccc(Cl)cc1Cl`, for which the GI50 with OVCAR-8 is 25.4 µM (inactive); in the assay on HOP-62 it was 14.2 µM (inactive); in the assay on MOLT-4, 15.8 µM (inactive); with SK-MEL-2, 20.3 µM (inactive); with COLO 205 it was 21.2 µM (inactive); with IGROV-1, 14.8 µM (inactive). In addition, the GI50 in the assay on SW-620 was 12.1 µM (inactive); with SF-539, 17.1 µM (inactive); with A549 it was 21 µM (inactive); in the assay on OVCAR-3 it was 19.9 µM (inactive); in the assay with UACC-62, 15.7 µM (inactive); in the assay with KM12 it was 14.7 µM (inactive).

In the case of `CN1C(=O)C(Cl)(C(Cl)(Cl)S(=O)(=O)O)C(=O)c2ccccc21.c1ccncc1` (stereo unspecified), the GI50 in the assay on OVCAR-8, with HOP-62, in the assay on MOLT-4, with A498, in the assay on COLO 205 and in the assay on IGROV-1 was > 100 µM (inactive) throughout. The GI50 in the assay on SW-620, in the assay with SF-539, in the assay on A549, in the assay on OVCAR-3, with UACC-62 and with KM12 was > 100 µM (inactive) in each case.

Take `COc1ccc(-c2cc(=O)c3c(O)cc(O)cc3o2)c(OC)c1OC`: the GI50 was > 100 µM (inactive) in the assay on HOP-62; > 100 µM (inactive) in the assay on SK-MEL-2; 57.7 µM (inactive) in the assay on COLO 205; > 100 µM (inactive) in the assay with IGROV-1; 71.1 µM (inactive) in the assay with SW-620; > 100 µM (inactive) in the assay on SF-539. Moreover, the GI50 was 59.3 µM (inactive) in the assay on A549, 38.9 µM (inactive) in the assay on OVCAR-3, 97.1 µM (inactive) with UACC-62 and 53.1 µM (inactive) in the assay on KM12.

As for `Cc1cc(O)nc(NNC(C#N)c2ccccc2O)n1` (stereo unspecified), the GI50 in the assay on OVCAR-8 was 35.7 µM (inactive); in the assay with HOP-62 it was 31.3 µM (inactive); with MOLT-4, 24.6 µM (inactive); with SK-MEL-2 it was 66.8 µM (inactive); in the assay on COLO 205 it was 31 µM (inactive); with IGROV-1, 21 µM (inactive). The GI50 in the assay on SW-620 is 44.6 µM (inactive); with SF-539, 10.4 µM (inactive); with A549, 16.8 µM (inactive); in the assay on OVCAR-3, 10.8 µM (inactive); in the assay on UACC-62, 21.7 µM (inactive); in the assay with KM12 it was 35.6 µM (inactive).

Consider `CC[C@H](C)C(=O)O[C@H]1C[C@@H](C)C=C2C=C[C@H](C)[C@H](CC[C@@H]3C[C@@H](O)CC(=O)O3)[C@H]21` [LOVASTATIN], for which the GI50 in the assay on OVCAR-8 was 7.83 µM (inactive); in the assay with HOP-62, 13.1 µM (inactive); in the assay with MOLT-4 it was 26.8 µM (inactive); with SK-MEL-2, 13.2 µM (inactive); with A498 it was 1.21 µM (inactive); with COLO 205, 5.73 µM (inactive). Besides, the GI50 was 5.96 µM (inactive) in the assay with IGROV-1; 7.36 µM (inactive) with SW-620; 21.2 µM (inactive) with A549; > 30 µM (inactive) in the assay with OVCAR-3; 1.53 µM (inactive) in the assay with UACC-62; > 30 µM (inactive) with KM12.

`CCCc1nn(C)c(CCC(=O)N(Cc2ccccc2)Cc2ccccc2)c1CC`: the GI50 in the assay with OVCAR-8, in the assay with HOP-62, in the assay on SK-MEL-2, with A498, with COLO 205 and in the assay with IGROV-1 was > 100 µM (inactive) each time. Also, the GI50 with SW-620, with SF-539, in the assay on A549, in the assay on OVCAR-3, in the assay with UACC-62 and with KM12 was > 100 µM (inactive) in each case.

As for `O=C(N/C(=C\c1cccc([N+](=O)[O-])c1)c1nc2cc([N+](=O)[O-])ccc2[nH]1)c1ccccc1`, the GI50 with OVCAR-8 is 31 µM (inactive); with MOLT-4 it was 12.2 µM (inactive); with SK-MEL-2 it was 24.3 µM (inactive); in the assay with COLO 205 it was 35.6 µM (inactive); with IGROV-1 it was 21.4 µM (inactive); in the assay with SW-620 it was 35.1 µM (inactive). Besides, the GI50 was 29.4 µM (inactive) in the assay with SF-539; 26.8 µM (inactive) in the assay with A549; 40.6 µM (inactive) in the assay with OVCAR-3; 19.7 µM (inactive) in the assay with UACC-62; 29.6 µM (inactive) in the assay on KM12.

With `c1ccc(-c2nnc3nn4c(-c5ccccc5)cnnc4c3c2-c2ccccc2)cc1`, the GI50 with OVCAR-8 was 76.4 µM (inactive); with MOLT-4, > 100 µM (inactive); in the assay on SK-MEL-2, > 100 µM (inactive); in the assay with A498, > 100 µM (inactive); with SW-620, > 100 µM (inactive); with SF-539, 26.3 µM (inactive). The GI50 in the assay on A549 was 50.8 µM (inactive); in the assay with OVCAR-3 it was 26.4 µM (inactive); in the assay with UACC-62 it was 32.1 µM (inactive); in the assay with KM12, > 100 µM (inactive).

In the case of `COc1ccc(/C=N/N=C(\N)NO)cc1OC`, the GI50 in the assay on OVCAR-8 was 38.4 µM (inactive); in the assay with HOP-62, 31.9 µM (inactive); with MOLT-4, > 100 µM (inactive); with SK-MEL-2, 58.5 µM (inactive); in the assay with COLO 205 it was 37.5 µM (inactive); with IGROV-1 it was 33.9 µM (inactive). The GI50 in the assay with SW-620 was 65.2 µM (inactive); with SF-539 it was 26.3 µM (inactive); in the assay on A549, 28.4 µM (inactive); with OVCAR-3 it was > 100 µM (inactive); in the assay with UACC-62, 23.3 µM (inactive); with KM12, 52.7 µM (inactive).

As to `O=c1cc(-c2ccccc2)oc2cc(O)cc(O)c12` [CHRYSIN], the GI50 is 31.4 µM (inactive) in the assay on HOP-62; 18.3 µM (inactive) in the assay with MOLT-4; 17.9 µM (inactive) with SK-MEL-2; 18.5 µM (inactive) with COLO 205; > 10 µM (inactive) in the assay on IGROV-1; 15.1 µM (inactive) in the assay with SF-539. In addition, the GI50 with A549 was 27 µM (inactive); in the assay with OVCAR-3 it was 28.8 µM (inactive); in the assay with UACC-62, 21.5 µM (inactive); with KM12, 15.5 µM (inactive).

On to `COc1ccc2nc3ccccc3c(NCCN(CCCl)CCCl)c2c1`, for which the GI50 in the assay on OVCAR-8 is 0.649 µM (active); in the assay with HOP-62, 0.555 µM (active); with MOLT-4, 0.0592 µM (active); in the assay on SK-MEL-2, 1.81 µM (inactive); in the assay on A498, 2.49 µM (inactive); with IGROV-1, 1.3 µM (inactive). For the same molecule, the GI50 in the assay on SW-620 is 0.238 µM (active); in the assay with SF-539, 0.608 µM (active); in the assay on A549 it was 0.771 µM (active); in the assay with OVCAR-3, 0.269 µM (active); with UACC-62 it was 1 µM (active); with KM12, 1.34 µM (inactive).

For the molecule `CC(C)C(Nc1c2ccccc2nc2ccccc12)C(=O)O` (stereo unspecified), the GI50 in the assay with OVCAR-8 was > 100 µM (inactive); in the assay on MOLT-4 it was 38.7 µM (inactive); with SK-MEL-2 it was > 100 µM (inactive); with COLO 205 it was 70.1 µM (inactive); in the assay with IGROV-1 it was > 100 µM (inactive); with SW-620, > 100 µM (inactive). Further, the GI50 in the assay with SF-539 is > 100 µM (inactive); in the assay with A549 it was > 100 µM (inactive); with OVCAR-3, 94.2 µM (inactive); in the assay on UACC-62 it was > 100 µM (inactive); in the assay on KM12, > 100 µM (inactive).

For `CCC12CCCN(Cc3ccccc3)C1c1c(n(C)c3ccccc13)C(C(=O)OC)C2` (stereo unspecified), the GI50 in the assay on OVCAR-8 was 169 µM (inactive); in the assay with HOP-62, 129 µM (inactive); in the assay on MOLT-4, 74.3 µM (inactive); in the assay on SK-MEL-2, > 239 µM (inactive); in the assay with COLO 205 it was 107 µM (inactive); with IGROV-1 it was 146 µM (inactive). For the same molecule, the GI50 is 115 µM (inactive) with SW-620; 126 µM (inactive) in the assay with SF-539; > 239 µM (inactive) in the assay with A549; 53.7 µM (inactive) in the assay on OVCAR-3; > 239 µM (inactive) in the assay with UACC-62; 85.3 µM (inactive) in the assay on KM12.

As to `CCN1CCC(O)(c2ccc(Cl)cc2)C(C(=O)c2ccc(Cl)cc2)C1` (stereo unspecified), the GI50 with OVCAR-8, in the assay with MOLT-4, with SK-MEL-2, with A498, in the assay on COLO 205 and with IGROV-1 was > 100 µM (inactive) in each case. Besides, the GI50 in the assay on SW-620 is 70.3 µM (inactive); in the assay on SF-539, 26.2 µM (inactive); with A549 it was > 100 µM (inactive); in the assay on OVCAR-3 it was > 100 µM (inactive); in the assay with UACC-62, > 100 µM (inactive); in the assay with KM12 it was > 100 µM (inactive).

Regarding `C[C@H](OCc1ccccc1)C(=O)N1CCS(=O)(=O)N2CCC[C@H]2C1=O`, the GI50 in the assay on OVCAR-8, in the assay with HOP-62, in the assay on MOLT-4, with A498, in the assay with COLO 205 and with IGROV-1 was > 100 µM (inactive) in each case. In addition, the GI50 with SW-620, with SF-539, with A549, in the assay with OVCAR-3, with UACC-62 and in the assay on KM12 was > 100 µM (inactive) throughout.

Regarding `CCN(CC)c1ccc2c(c1)N=C1N=CC=CN1C2(c1ccc(N(C)C)cc1)c1ccc(N(C)C)cc1`, the GI50 with OVCAR-8 was 4.19 µM (inactive); with HOP-62, 10.9 µM (inactive); in the assay with MOLT-4, 2.47 µM (inactive); in the assay with SK-MEL-2, 12.6 µM (inactive); in the assay with A498, 17.5 µM (inactive); with COLO 205, 2.36 µM (inactive). Also, the GI50 in the assay with IGROV-1 is 10.4 µM (inactive); with SF-539, 14.6 µM (inactive); in the assay with A549, 12 µM (inactive); with OVCAR-3 it was 3.16 µM (inactive); with UACC-62, 10.7 µM (inactive); with KM12 it was 4.42 µM (inactive).

`COc1ccc(OC)c(CCc2ccccc2CC(=O)O)c1`: the GI50 in the assay on OVCAR-8, with MOLT-4, in the assay with SK-MEL-2, in the assay on A498, in the assay on COLO 205 and in the assay with IGROV-1 was > 100 µM (inactive) each time. Further, the GI50 with SW-620, in the assay with SF-539, with A549, with OVCAR-3, in the assay with UACC-62 and with KM12 was > 100 µM (inactive) in each case.

The values above are taken from ChEMBL document CHEMBL1201862, “PubChem BioAssay data set” (2004).
